Legend:
Test in all cases: Cell proliferation WST-1 assay, single dose (Example 4)
Assay type in all cases: cell-based
Conditions in all cases: 100 μM, 48 hours
[1] = test system: Jurkat T-cell leukemia cells
Method in brief: (§1)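 WST-1 absorbance at 450 nm (minus 650 nm background) after 48 h compound treatment; data expressed relative to DMSO-treated controls. Seeding ~5000 cells/well, 16-20 h recovery before dosing.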

A375 melanoma cells = test system: A375 melanoma cells
Method in brief: as §1

SK-MEL-28 melanoma cells = test system: SK-MEL-28 melanoma cells
Method in brief: as §1

RPMI-7951 melanoma cells = test system: RPMI-7951 melanoma cells
Method in brief: as §1

[2] = test system: HeLa cervical carcinoma cells
Method in brief: as §1

HL-60 leukemic cells = test system: HL-60 leukemic cells
Method in brief: as §1

Structure (SMILES)	Cell Viability (% of Vehicle) Jurkat [1]	Cell Viability (% of Vehicle) A375 (A375 melanoma cells)	Cell Viability (% of Vehicle) SK-MEL-28 (SK-MEL-28 melanoma cells)	Cell Viability (% of Vehicle) RPMI-7951 (RPMI-7951 melanoma cells)	Cell Viability (% of Vehicle) HeLa [2]	Cell Viability (% of Vehicle) HL-60 (HL-60 leukemic cells)
CCOc1ccc(/C=C2\SC(=O)N(Cc3ccncc3)C2=O)cc1 [Compound 28l, (Z)-5-(4-ethoxybenzylidene)-3-(pyridin-4-ylmethyl)thiazolidine-2,4-dione]	96 ± 11 % of Vehicle	105 ± 12 % of Vehicle	79 ± 3 % of Vehicle	102 ± 3 % of Vehicle	81 ± 5 % of Vehicle	82 ± 54 % of Vehicle
CCOc1ccc(/C=C2\SC(=O)N(Cc3ccc(C#N)cc3)C2=O)cc1 [Compound 28m, (Z)-4-((5-(4-ethoxybenzylidene)-2,4-dioxothiazolidin-3-yl)methyl)benzonitrile]	103 ± 11 % of Vehicle	108 ± 3 % of Vehicle	97 ± 7 % of Vehicle	106 ± 8 % of Vehicle	95 ± 3 % of Vehicle	86 ± 37 % of Vehicle
CCOc1ccc(/C=C2\SC(=O)N(Cc3ccc([N+](=O)[O-])cc3)C2=O)cc1 [Compound 28n, (Z)-5-(4-ethoxybenzylidene)-3-(4-nitrobenzyl)thiazolidine-2,4-dione]	101 ± 9 % of Vehicle	117 ± 3 % of Vehicle	104 ± 3 % of Vehicle	119 ± 13 % of Vehicle	97 ± 9 % of Vehicle	97 ± 23 % of Vehicle
CCOc1ccc(/C=C2\SC(=O)N(Cc3ccc(N)cc3)C2=O)cc1 [Compound 28o, (Z)-3-(4-aminobenzyl)-5-(4-ethoxybenzylidene)thiazolidine-2,4-dione]	97 ± 7 % of Vehicle	119 ± 6 % of Vehicle	94 ± 5 % of Vehicle	102 ± 23 % of Vehicle	89 ± 9 % of Vehicle	86 ± 21 % of Vehicle
CCOc1ccc(/C=C2\SC(=O)N(Cc3ccc(C(=O)OC(C)(C)C)cc3)C2=O)cc1 [Compound 28p, (Z)-tert-butyl 4-((5-(4-ethoxybenzylidene)-2,4-dioxothiazolidin-3-yl)methyl)benzoate]	101 ± 2 % of Vehicle	119 ± 1 % of Vehicle	105 ± 3 % of Vehicle	122 ± 1 % of Vehicle	100 ± 6 % of Vehicle	98 ± 24 % of Vehicle
CCOc1ccc(/C=C2\SC(=O)N(Cc3ccc(C(=O)O)cc3)C2=O)cc1 [Compound 28q, (Z)-4-((5-(4-ethoxybenzylidene)-2,4-dioxothiazolidin-3-yl)methyl)benzoic acid]	85 ± 3 % of Vehicle	2.0 ± 0.5 % of Vehicle	59 ± 13 % of Vehicle	34 ± 3 % of Vehicle	64 ± 2 % of Vehicle	84 ± 37 % of Vehicle
CCOc1ccc(/C=C2\SC(=O)N(Cc3cccc(C(=O)O)c3)C2=O)cc1 [Compound 28r, (Z)-3-((5-(4-ethoxybenzylidene)-2,4-dioxothiazolidin-3-yl)methyl)benzoic acid]	80 ± 3 % of Vehicle	59 ± 1 % of Vehicle	83 ± 7 % of Vehicle	83 ± 6 % of Vehicle	75 ± 4 % of Vehicle	41 ± 22 % of Vehicle
CCOc1ccc(/C=C2\SC(=O)N(Cc3ccccc3C(=O)O)C2=O)cc1 [Compound 28s, (Z)-2-((5-(4-ethoxybenzylidene)-2,4-dioxothiazolidin-3-yl)methyl)benzoic acid]	46 ± 1 % of Vehicle	39 ± 1 % of Vehicle	49 ± 8 % of Vehicle	45 ± 8 % of Vehicle	61 ± 4 % of Vehicle	31 ± 15 % of Vehicle
NCCN1C(=O)S/C(=C\c2ccccc2)C1=O [Compound 30a, (Z)-3-(2-aminoethyl)-5-benzylidenethiazolidine-2,4-dione]	88 ± 4 % of Vehicle	82 ± 9 % of Vehicle	88 ± 7 % of Vehicle	89 ± 17 % of Vehicle	82 ± 10 % of Vehicle	28 ± 20 % of Vehicle
CCOc1cccc(/C=C2\SC(=O)N(CCN)C2=O)c1 [Compound 30b, (Z)-3-(2-aminoethyl)-5-(3-ethoxybenzylidene)thiazolidine-2,4-dione]	54 ± 5 % of Vehicle	19 ± 3 % of Vehicle	36 ± 6 % of Vehicle	30 ± 2 % of Vehicle	40 ± 1 % of Vehicle	4.8 ± 2 % of Vehicle
CCOc1ccccc1/C=C1\SC(=O)N(CCN)C1=O [Compound 30c, (Z)-3-(2-aminoethyl)-5-(2-ethoxybenzylidene)thiazolidine-2,4-dione]	66 ± 5 % of Vehicle	22 ± 9 % of Vehicle	52 ± 11 % of Vehicle	45 ± 2 % of Vehicle	39 ± 3 % of Vehicle	8.9 ± 4 % of Vehicle
Cc1ccc(/C=C2\SC(=O)N(CCN)C2=O)cc1 [Compound 30d, (Z)-3-(2-aminoethyl)-5-(4-methylbenzylidene)thiazolidine-2,4-dione]	71 ± 6 % of Vehicle	23 ± 6 % of Vehicle	31 ± 7 % of Vehicle	23 ± 1 % of Vehicle	54 ± 3 % of Vehicle	4.8 ± 2 % of Vehicle
CCCc1ccc(/C=C2\SC(=O)N(CCN)C2=O)cc1 [Compound 30e, (Z)-3-(2-aminoethyl)-5-(4-propylbenzylidene)thiazolidine-2,4-dione]	16 ± 8 % of Vehicle	0.6 ± 0.1 % of Vehicle	0.6 ± 0.4 % of Vehicle	0.7 ± 0.1 % of Vehicle	11 ± 2 % of Vehicle	5.9 ± 2 % of Vehicle
NCCN1C(=O)S/C(=C\c2ccc(O)cc2)C1=O [Compound 30f, (Z)-3-(2-aminoethyl)-5-(4-hydroxybenzylidene)thiazolidine-2,4-dione]	96 ± 3 % of Vehicle	8.8 ± 2 % of Vehicle	38 ± 3 % of Vehicle	24 ± 5 % of Vehicle	63 ± 10 % of Vehicle	17 ± 12 % of Vehicle
NCCN1C(=O)S/C(=C\c2ccccc2O)C1=O [Compound 30i, (Z)-3-(2-aminoethyl)-5-(2-hydroxybenzylidene)thiazolidine-2,4-dione]	99 ± 5 % of Vehicle	78 ± 3 % of Vehicle	85 ± 9 % of Vehicle	102 ± 10 % of Vehicle	68 ± 3 % of Vehicle	24 ± 8 % of Vehicle
CC(C)COc1ccccc1/C=C1\SC(=O)N(CCN)C1=O [Compound 30j, (Z)-3-(2-aminoethyl)-5-(2-isobutoxybenzylidene)thiazolidine-2,4-dione]	1.8 ± 0.1 % of Vehicle	0.8 ± 0.02 % of Vehicle	1.0 ± 0.1 % of Vehicle	1.0 ± 0.04 % of Vehicle	0.8 ± 0.1 % of Vehicle	9.5 ± 3.4 % of Vehicle

Reference: patent US9115122B2, “Non-ATP dependent inhibitors of extracellular signal-regulated kinase (ERK)” (UNIVERSITY OF MARYLAND, BALTIMORE, priority 2012, dated 2015)
